# In ChEMBL document CHEMBL3868595, “Plazomicin is effective in a non-human primate pneumonic plague model” (Bioorg Med Chem, 2016):
# Experiments:
# Yersinia pestis [1] = experiment: Antibacterial activity against Yersinia pestis Colorado 92 infected in African green monkey B6861 model assessed as bacterial burden in kidney at 6.25 mg/kg, iv administered within 6 hrs post onset of sustained fever as 30 mins infusion for 5 days (reference value: 7.1 10^7CFU/g); type: functional, CO92
# Yersinia pestis [2] = experiment: Antibacterial activity against Yersinia pestis Colorado 92 infected in African green monkey B6873 model assessed as bacterial burden in blood at 12.5 mg/kg, iv administered within 6 hrs post onset of sustained fever as 30 mins infusion for 5 days (reference value: 1.2 10^7CFU/ml); type: functional, organism-based; conditions: CO92
# Yersinia pestis [3] = experiment: (§1) Antibacterial activity against Yersinia pestis Colorado 92 infected in African green monkey B6106 model assessed as bacterial burden in tracheobronchial lymph nodes at 25 mg/kg, iv administered within 6 hrs post onset of sustained fever as 30 mins infusion for 5 days (reference value: 7.7 10^9CFU/g); type: functional, organism-based; conditions: CO92, Lymph node
# Yersinia pestis [4] = experiment: Antibacterial activity against Yersinia pestis Colorado 92 infected in African green monkey B6872 model assessed as bacterial burden in tracheobronchial lymph nodes at 25 mg/kg, iv administered within 6 hrs post onset of sustained fever as 30 mins infusion for 5 days (reference value: 7.7 10^9CFU/g); type: functional, organism-based; conditions: CO92, Lymph node
# Yersinia pestis [5] = experiment: Antibacterial activity against Yersinia pestis Colorado 92 infected in African green monkey C2149 model assessed as bacterial burden in brain at 6.25 mg/kg, iv administered within 6 hrs post onset of sustained fever as 30 mins infusion for 5 days (reference value: 1.9 10^6CFU/g); type: functional, CO92
# Yersinia pestis [6] = experiment: Antibacterial activity against Yersinia pestis Colorado 92 infected in African green monkey C2083 model assessed as bacterial burden in spleen at 12.5 mg/kg, iv administered within 6 hrs post onset of sustained fever as 30 mins infusion for 5 days (reference value: 1.6 10^9CFU/g); type: functional, CO92
# [7] = Toxicity in African green monkey 7643 model infected with Yersinia pestis Colorado 92 assessed as total white blood cell count at 25 mg/kg, iv administered within 6 hrs post onset of sustained fever as 30 mins infusion for 10 days (reference value: 6.1 10^3/microL); type: organism-based; conditions: chlorocebus aethiops, in vivo
# Yersinia pestis [8] = experiment: Antibacterial activity against Yersinia pestis Colorado 92 infected in African green monkey B6872 model assessed as bacterial burden in brain at 25 mg/kg, iv administered within 6 hrs post onset of sustained fever as 30 mins infusion for 5 days (reference value: 1.9 10^6CFU/g); type: functional, CO92
# Yersinia pestis [9] = experiment: Antibacterial activity against Yersinia pestis Colorado 92 infected in African green monkey C2083 model assessed as bacterial burden in kidney at 12.5 mg/kg, iv administered within 6 hrs post onset of sustained fever as 30 mins infusion for 5 days (reference value: 7.1 10^7CFU/g); type: functional, CO92
# African green monkey [10] = experiment: Toxicity in African green monkey assessed as effect on serum creatinine level at 35 mg/kg administered as iv infusion twice daily for 7 consecutive days measured on day 1 by LC-MS/MS analysis; type: organism-based; conditions: chlorocebus sabaeus, in vivo
# Yersinia pestis [11] = experiment: Antibacterial activity against Yersinia pestis Colorado 92 infected in African green monkey B6106 model assessed as bacterial burden in blood at 25 mg/kg, iv administered within 6 hrs post onset of sustained fever as 30 mins infusion for 5 days (reference value: 1.2 10^7CFU/ml); type: functional, CO92
# Yersinia pestis [12] = experiment: Antibacterial activity against Yersinia pestis Colorado 92 infected in African green monkey C2083 model assessed as bacterial burden in blood at 12.5 mg/kg, iv administered within 6 hrs post onset of sustained fever as 30 mins infusion for 5 days (reference value: 1.2 10^7CFU/ml); type: functional, CO92
# Yersinia pestis [13] = experiment: Antibacterial activity against Yersinia pestis Colorado 92 infected in African green monkey B6960 model assessed as bacterial burden in liver at 6.25 mg/kg, iv administered within 6 hrs post onset of sustained fever as 30 mins infusion for 5 days (reference value: 5.2 10^8CFU/g); type: functional, CO92
# [14] = Elimination half life in African green monkey blood at 35 mg/kg administered as iv infusion twice daily for 7 consecutive days measured on day 1 by LC-MS/MS analysis; type: ADME, organism-based; conditions: chlorocebus aethiops, read-out: beta t1/2 (converted)
# Yersinia pestis [15] = experiment: as §1, with “B6672” for “B6106”, “12.5” for “25”; type: functional, CO92, Lymph node
# Yersinia pestis [16] = experiment: Antibacterial activity against Yersinia pestis Colorado 92 infected in African green monkey B6872 model assessed as bacterial burden in blood at 25 mg/kg, iv administered within 6 hrs post onset of sustained fever as 30 mins infusion for 5 days (reference value: 1.2 10^7CFU/ml); type: functional, organism-based; conditions: CO92
# African green monkey [17] = experiment: Toxicity in African green monkey B6291 model infected with Yersinia pestis Colorado 92 assessed as serum creatinine level at 25 mg/kg, iv administered within 6 hrs post onset of sustained fever as 30 mins infusion for 10 days (reference value: 0.6 mg/dl); type: organism-based; conditions: chlorocebus sabaeus, in vivo
# Yersinia pestis [18] = experiment: Antibacterial activity against Yersinia pestis Colorado 92 infected in African green monkey B6783 model assessed as bacterial burden in brain at 12.5 mg/kg, iv administered within 6 hrs post onset of sustained fever as 30 mins infusion for 5 days (reference value: 1.9 10^6CFU/g); type: functional, CO92
# Yersinia pestis [19] = experiment: Antibacterial activity against Yersinia pestis Colorado 92 infected in African green monkey B6106 model assessed as bacterial burden in brain at 25 mg/kg, iv administered within 6 hrs post onset of sustained fever as 30 mins infusion for 5 days (reference value: 1.9 10^6CFU/g); type: functional, CO92
# Yersinia pestis [20] = experiment: as §1, with “B6889” for “B6106”, “6.25” for “25”; type: functional, CO92, Lymph node
# Yersinia pestis [21] = experiment: Antibacterial activity against Yersinia pestis Colorado 92 infected in African green monkey B6988 model assessed as bacterial burden in liver at 6.25 mg/kg, iv administered within 6 hrs post onset of sustained fever as 30 mins infusion for 5 days (reference value: 5.2 10^8CFU/g); type: functional, CO92
# [22] = Clearance in African green monkey blood at 35 mg/kg administered as iv infusion twice daily for 7 consecutive days measured on day 7 by LC-MS/MS analysis; type: ADME, organism-based; conditions: chlorocebus aethiops
# [23] = Clearance in African green monkey blood at 25 mg/kg administered as iv infusion twice daily for 7 consecutive days measured on day 7 by LC-MS/MS analysis; type: ADME, organism-based; conditions: chlorocebus aethiops
# African green monkey [24] = experiment: Toxicity in African green monkey 7653 model infected with Yersinia pestis Colorado 92 assessed as serum lactate dehydrogenase level at 25 mg/kg, iv administered within 6 hrs post onset of sustained fever as 30 mins infusion for 10 days (reference value: 319 IU/L); type: organism-based; conditions: chlorocebus sabaeus, in vivo
# [25] = Cmax in African green monkey blood at 25 mg/kg administered as iv infusion twice daily for 7 consecutive days measured on day 1 by LC-MS/MS analysis; type: ADME, organism-based; design: dose 25 mg/kg, route intravenous; conditions: chlorocebus aethiops
# African green monkey [26] = experiment: Toxicity in African green monkey B6140 model infected with Yersinia pestis Colorado 92 assessed as blood urea nitrogen level at 25 mg/kg, iv administered within 6 hrs post onset of sustained fever as 30 mins infusion for 10 days (reference value: 24 mg/dl); type: organism-based; conditions: chlorocebus sabaeus, in vivo
smiles,measurement,setting,value
CN[C@@H]1[C@@H](O)[C@@H](O[C@@H]2[C@@H](O)[C@H](O[C@H]3OC(CNCCO)=CC[C@H]3N)[C@@H](N)C[C@H]2NC(=O)[C@@H](O)CCN)OC[C@]1(C)O [PLAZOMICIN],Activity,Yersinia pestis [1],11 CFU/g
same,Activity,Yersinia pestis [2],Below limit of detection
same,Activity,Yersinia pestis [3],Below limit of detection
same,Activity,Yersinia pestis [4],Below limit of detection
same,Activity,Yersinia pestis [5],46 CFU/g
same,Activity,Yersinia pestis [6],1.5 ×10⁷ CFU/g
same,Activity,[7],5.7 ×10³ /uL
same,Activity,Yersinia pestis [8],4.1 ×10⁶ CFU/g
same,Activity,Yersinia pestis [9],3.1 ×10⁶ CFU/g
same,Activity,African green monkey [10],0.6 mg/dL
same,Activity,Yersinia pestis [11],40 CFU/ml
same,Activity,Yersinia pestis [12],24 CFU/ml
same,Activity,Yersinia pestis [13],38 CFU/g
same,half-life,[14],1.7 h
same,Activity,Yersinia pestis [15],8.3 ×10⁶ CFU/g
same,Activity,Yersinia pestis [16],Below limit of detection
same,Activity,African green monkey [17],0.5 mg/dL
same,Activity,Yersinia pestis [18],33 CFU/g
same,Activity,Yersinia pestis [19],6.4 ×10⁷ CFU/g
same,Activity,Yersinia pestis [20],3.6 ×10⁹ CFU/g
same,Activity,Yersinia pestis [21],17 CFU/g
same,clearance,[22],1.67 mL/min/kg
same,clearance,[23],1.83 mL/min/kg
same,Activity,African green monkey [24],426 IU/L
same,Cmax,[25],96 µg/mL
same,Activity,African green monkey [26],27 mg/dL
